Tests used:
[1] = system: R3230 AC mammary adenocarcinoma; assay: R3230 AC mammary adenocarcinoma growth and radiation response in Fischer 344 rats; type: in vivo; conditions: for tumor growth as compared to control (Day 20 Tumor Ratio, Days for 5-fold tumor growth): 6 mg/kg/day IP Day 1 to 20, FIG. 2C
Description: FIGS. 2A-2C. (FIG. 2A) B16 melanoma tumor treated with SOD mimetic. The mimetic was 10113 at a dose of 6 mg/kg given intraperitoneally qd for 5 days. (FIG. 2B) Mammary adenocarcinoma treated with SOD mimetic. 10113 was given intraperitoneally at a dose of 6 mg/kg/day for 16 days. Radiation therapy (RT), 21 Gy, was given on day 8 or 9. (FIG. 2C) Fischer 344 rats with subcutaneously implanted R3230 AC mammary adenocarcinomas received Radiation treatment (21 Gy Day 1), AEOL 10113 (6 mg/kg/day IP Day 1 to 20), the combination Radiation and AEOL 10113 (as above), or Control treatment.
The effect of the MnTE-2-PyP (manganese(III) tetrakis(N-ethylpyridinium-2-yl)porphyrin) on tumor growth and radiation response in two tumor models has been tested. […] The effect of the SOD mimetic. MnTE-2-PyP, on tumor growth and radiation response has been tested in a rat model.
[…] AC mammary adenocarcinoma was transplanted on the right hind leg. When the tumors reached 0.8-1 cm in diameter, the rats were randomized into 4 groups to receive 1) Saline (control); 2) Drug 10150; 3) Drug 10113; 4) Drug 10201. Drugs were given daily in dose of […] i.p. The tumor size was measured twice a week. (FIG. 3).

[2] = system: radiation-induced lung injury; assay: Radiation-induced lung injury in rats (28 Gy right hemithoracic irradiation); type: in vivo
Description: AEOL 10113 was tested (6 mg/kg/day for 5 days beginning on the day of irradiation) in a rat model of radiation-induced lung injury as assessed by breathing rate (animals with lung injury have a more rapid respiration rate), and chemical and microscopic measures of fibrosis. During the follow-up period of 6 months, 4 of the 9 rats receiving radiation only developed severe respiratory distress and were euthanized. In the group of rats treated with radiation plus AEOL 10113, only 1 of the 9 rats developed respiratory distress and was euthanized. Breathing rate data were analyzed on a last observation carried forward (LOCF) data set, in which the last observation for rats euthanized due to respiratory distress was imputed to subsequent weeks. There was a significant (log ranks p=0.0011) delay (approximately 3.4 weeks) in the development of radiation-induced lung injury (assessed by an increase in breathing rate) in animals treated with AEOL 10113 (FIG. 12).
Six months after radiation all remaining animals were euthanized. At that time, the right upper lung lobe was removed and processed to quantify the extent of lung fibrosis based on hydroxyproline content.
Radiation-induced lung fibrosis was also assessed using histopathology (FIG. 13B). Lungs were fixed in 10% neutral buffered formalin. Five-micron thick sections were stained with hematoxylin and eosin or Masson trichrome and examined microscopically. Slides were systematically scanned in a microscope using a ×10 objective. Each successive field was individually assessed for severity of interstitial fibrosis and allotted a score of between 0 and 8.
Studies were performed to evaluate changes in body weight after irradiation and to assess the radioprotective effect of MnTE-2-PyP on radiation-induced pulmonary injury in rats. The body weight and lung function of the animals were measured every two weeks after irradiation in three groups of animals: control, radiation alone and radiation+MnTE-2-PyP. A single dose of 28 Gy was delivered to right hemithorax and 6 mg/kg of MnTE-2-PyP was given daily i.p. for 5 days after irradiation. Unrestrained rats were placed in a 1500 ml whole body plethysmograph tube connected to a pressure transducer for a breathing rate measurements. […] The mean of five measurements was performed on each animal.

CC[n+]1ccccc1-c1c2nc(c(-c3cccc[n+]3CC)c3ccc([n-]3)c(-c3cccc[n+]3CC)c3nc(c(-c4cccc[n+]4CC)c4ccc1[n-]4)C=C3)C=C2.[Mn+3] [Compound 10113, manganese(III)tetrakis(N-ethylpyridinium-2-yl)porphyrin]
tumor growth as compared to control (Day 20 Tumor Ratio, Days for 5-fold tumor growth) ([1]; listed as AEL 10113): limited tumor growth | tumor growth as compared to control (Day 20 Tumor Ratio, Days for 5-fold tumor growth) ([1]; listed as AEOL 10113): significantly (p<0.05) inhibited tumor growth | post-radiation tumor regrowth ([1]; radiation 21 Gy plus mimetic): significant inhibition of the post-radiation tumor regrowth | effect on tumor response to radiation ([1]; radiation 21 Gy plus mimetic, listed as AEL 10113): did not diminish the effect of radiation on tumor growth | effect on tumor response to radiation ([1]; radiation 21 Gy plus mimetic, listed as MnTE-2-PyP): does not protect tumor from irradiation | inhibition of tumor growth ([1]; rat model, SOD mimetic alone): > 50% | delay in the development of radiation-induced lung injury (increase in breathing rate) ([2]; 6 mg/kg/day for 5 days, LOCF, log ranks p=0.0011): approximately 3.4 weeks | reduction of the magnitude of the increase in breathing rate at endpoint ([2]; 6 mg/kg/day for 5 days, average): 34% | hydroxyproline content of upper right lobe after radiation ([2]; 6 months after 28 Gy, wet and dry lung): significant reduction (p<0.05) | recovery of body weight loss after hemithoracic irradiation ([2]; 28 Gy, 6 mg/kg daily i.p. for 5 days): significantly better recovery of the body weight loss | hydroxyproline content of right upper lobe vs control ([2]; AEOL 10113 without radiation): no differences | radiation-induced lung fibrosis by histopathology ([2]; fibrosis score 0-8, FIG. 13B): reduced radiation-induced lung fibrosis | rats that developed respiratory distress and were euthanized ([2]; of 9 rats, radiation plus AEOL 10113, 6 months, radiation only 4 of 9): 1

— patent US8765729B2, “Cancer therapy” (Aeolus Sciences, Inc., priority 2001, dated 2014)
